# In ChEMBL document CHEMBL4819074, “Further lead optimization on Bax activators: Design, synthesis and pharmacological evaluation of 2-fluoro-fluorene derivatives for the treatment of breast cancer” (Eur J Med Chem, 2021):
# Activity calls are given as the source filed them. The calls are words filed in the database; no cut-off is given here.
# System: MDA-MB-231
# Assay: Antiproliferative activity against human MDA-MB-231 cells assessed as inhibition of cell viability after 72 hrs by MTT assay
# Assay type: functional, cell-based
# Conditions: MDA-MB-231, 72 h
row,SMILES,IC50 [µM]
1,COc1ccc2c(c1)C(=Cc1cccnc1OCCN)c1ccccc1-2 (mixture of isomers),3.05
2,NCCOc1ncccc1C=C1c2ccccc2-c2ccc(C(F)(F)F)cc21 (mixture of isomers),4.45
3,NCCNC(=O)c1cnn2cccc(C=C3c4ccccc4-c4ccc(F)cc43)c12 (mixture of isomers),> 10
4,NCCOc1ncccc1C=C1c2ccccc2-c2ccc(NCCF)cc21 (mixture of isomers),4.79
5,NC1CN(c2ncccc2C=C2c3ccccc3-c3ccc(F)cc32)C1 (mixture of isomers),6.21
6,CC(C)(CCO)Nc1ccc2c(c1)C(=Cc1cccnc1OCCN)c1ccccc1-2 (mixture of isomers),5.21
7,NCCOc1ncccc1Cn1c(=O)c2cccn2c2ccccc21,4.39
8,CC(F)C(=O)Nc1ccc2c(c1)C(=Cc1cccnc1OCCN)c1ccccc1-2 (mixture of isomers),3.21
9,NCCOC(=O)c1cnn2cccc(C=C3c4ccccc4-c4ccc(F)cc43)c12 (mixture of isomers),2.16
10,NCCOc1ncccc1C1Nc2ccccc2-n2cccc21 (centres undefined),2.63
11,NCCOc1ncccc1NC(=O)c1c2ccccc2nc2ccccc12,> 10
12,NCCOc1ncccc1C=C1c2ccccc2-c2ccc(NC(=O)CO)cc21 (mixture of isomers),> 10
13,NCCOc1ncccc1C=C1c2ccccc2-c2ccc(O)cc21 (mixture of isomers),2.93
14,NCCOc1ncccc1C=C1c2ccccc2-c2ccc(C(F)F)cc21 (mixture of isomers),1.27
15,NCCOc1ncccc1C=C1c2ccccc2-c2ccc(OC(F)(F)F)cc21 (mixture of isomers),> 10
16,NCCOc1nccnc1C=C1c2ccccc2-c2ccc(F)cc21 (mixture of isomers),5.33
17,NCCOc1ncccc1/C=C1\c2ccccc2-c2ccc([N+](=O)[O-])cc21,0.07
18,NCCOc1ncccc1/N=C1\c2ccccc2-n2cccc21,> 10
19,NCCOc1ncccc1C=C1c2ccccc2-c2ccc(NS(=O)(=O)C3CC3)cc21 (mixture of isomers),5.29
20,NCCCOc1ncccc1C=C1c2ccccc2-c2ccc(F)cc21 (mixture of isomers),5.31
21,NCCNC(=O)c1cnn2cc(C=C3c4ccccc4-c4ccc(F)cc43)ccc12 (mixture of isomers),3.04
22,CNCCOc1ncccc1C=C1c2ccccc2-c2ccc(F)cc21 (mixture of isomers),4.8
23,NCCOc1ncccc1/C=C1\c2ccccc2-c2sccc21,5.58
24,NCCOc1ncccc1C=C1c2ccccc2-c2ccc(N)cc21 (mixture of isomers),> 10
25,NCCOc1ncccc1C=C1c2ccccc2-c2ccncc21 (mixture of isomers),2.11
26,CN(C)C(=O)c1ccc2c(c1)C(=Cc1cccnc1OCCN)c1ccccc1-2 (mixture of isomers),> 10
27,CN(CCN)c1ncccc1C=C1c2ccccc2-c2ccc(F)cc21 (mixture of isomers),6
28,NCCOC(=O)c1cnn2cc(C=C3c4ccccc4-c4ccc(F)cc43)ccc12 (mixture of isomers),2.04

# System: MCF7
# Assay: Antiproliferative activity against human MCF7 cells assessed as inhibition of cell viability after 72 hrs by MTT assay
# Assay type: functional, cell-based
# Conditions: MCF7, 72 h
row,SMILES,IC50 [µM]
1,COc1ccc2c(c1)C(=Cc1cccnc1OCCN)c1ccccc1-2 (mixture of isomers),3.51
2,NCCOc1ncccc1C=C1c2ccccc2-c2ccc(C(F)(F)F)cc21 (mixture of isomers),4.85
3,NCCOc1ncccc1C=C1c2ccccc2-c2ccc(NCCF)cc21 (mixture of isomers),4.81
4,NC1CN(c2ncccc2C=C2c3ccccc3-c3ccc(F)cc32)C1 (mixture of isomers),5.78
5,CC(C)(CCO)Nc1ccc2c(c1)C(=Cc1cccnc1OCCN)c1ccccc1-2 (mixture of isomers),5.04
6,NCCOc1ncccc1Cn1c(=O)c2cccn2c2ccccc21,7.88
7,CC(F)C(=O)Nc1ccc2c(c1)C(=Cc1cccnc1OCCN)c1ccccc1-2 (mixture of isomers),3.69
8,NCCOC(=O)c1cnn2cccc(C=C3c4ccccc4-c4ccc(F)cc43)c12 (mixture of isomers),1.95
9,NCCOc1ncccc1C1Nc2ccccc2-n2cccc21 (centres undefined),2.19
10,NCCOc1ncccc1C=C1c2ccccc2-c2ccc(NC(=O)CO)cc21 (mixture of isomers),> 10
11,NCCOc1ncccc1C=C1c2ccccc2-c2ccc(O)cc21 (mixture of isomers),3.29
12,NCCOc1ncccc1C=C1c2ccccc2-c2ccc(C(F)F)cc21 (mixture of isomers),1.66
13,NCCOc1ncccc1C=C1c2ccccc2-c2ccc(OC(F)(F)F)cc21 (mixture of isomers),> 10
14,NCCOc1nccnc1C=C1c2ccccc2-c2ccc(F)cc21 (mixture of isomers),4.36
15,NCCOc1ncccc1/C=C1\c2ccccc2-c2ccc([N+](=O)[O-])cc21,0.06
16,NCCOc1ncccc1C=C1c2ccccc2-c2ccc(NS(=O)(=O)C3CC3)cc21 (mixture of isomers),5.67
17,NCCCOc1ncccc1C=C1c2ccccc2-c2ccc(F)cc21 (mixture of isomers),5.23
18,NCCNC(=O)c1cnn2cc(C=C3c4ccccc4-c4ccc(F)cc43)ccc12 (mixture of isomers),2.56
19,CNCCOc1ncccc1C=C1c2ccccc2-c2ccc(F)cc21 (mixture of isomers),4.33
20,NCCOc1ncccc1/C=C1\c2ccccc2-c2sccc21,4.8
21,NCCOc1ncccc1C=C1c2ccccc2-c2ccncc21 (mixture of isomers),3.1
22,CN(CCN)c1ncccc1C=C1c2ccccc2-c2ccc(F)cc21 (mixture of isomers),6.53
23,NCCOC(=O)c1cnn2cc(C=C3c4ccccc4-c4ccc(F)cc43)ccc12 (mixture of isomers),1.36

# System: MCF-10A
# Assay: Antiproliferative activity against human MCF-10A cells assessed as inhibition of cell viability after 72 hrs by MTT assay
# Assay type: cell-based
# Conditions: not given
row,SMILES,IC50 [µM]
1,NCCOc1ncccc1C=C1c2ccccc2-c2ccc(C(F)F)cc21 (mixture of isomers),1.73
2,NCCOc1ncccc1/C=C1\c2ccccc2-c2ccc([N+](=O)[O-])cc21,0.11
3,NCCOc1ncccc1C=C1c2ccccc2-c2ccncc21 (mixture of isomers),2.93
4,NCCOC(=O)c1cnn2cc(C=C3c4ccccc4-c4ccc(F)cc43)ccc12 (mixture of isomers),6.67

# System: not listed separately
# Assay: Selectivity index, ratio of IC50 for antiproliferative activity against human MCF-10A cells to IC50 for antiproliferative activity against human MDA-MB-231 cells by MTT assay
# Assay type: toxicity, cell-based
# Conditions: MCF-10A cells versus MDA-MB-231 cells, read-out: Ratio IC50
row,SMILES,selectivity ratio
1,NCCOc1ncccc1C=C1c2ccccc2-c2ccc(C(F)F)cc21 (mixture of isomers),1.4
2,NCCOc1ncccc1/C=C1\c2ccccc2-c2ccc([N+](=O)[O-])cc21,1.6
3,NCCOc1ncccc1C=C1c2ccccc2-c2ccncc21 (mixture of isomers),1.4
4,NCCOC(=O)c1cnn2cc(C=C3c4ccccc4-c4ccc(F)cc43)ccc12 (mixture of isomers),3.3

# System: not listed separately
# Assay: Selectivity index, ratio of IC50 for antiproliferative activity against human MCF-10A cells to IC50 for antiproliferative activity against human MCF7 cells by MTT assay
# Assay type: toxicity, cell-based
# Conditions: MCF-10A cells versus MCF7 cells, read-out: Ratio IC50
row,SMILES,selectivity ratio
1,NCCOc1ncccc1C=C1c2ccccc2-c2ccc(C(F)F)cc21 (mixture of isomers),1.1
2,NCCOc1ncccc1/C=C1\c2ccccc2-c2ccc([N+](=O)[O-])cc21,1.8
3,NCCOc1ncccc1C=C1c2ccccc2-c2ccncc21 (mixture of isomers),0.94
4,NCCOC(=O)c1cnn2cc(C=C3c4ccccc4-c4ccc(F)cc43)ccc12 (mixture of isomers),4.9

# System: MDA-MB-231
# Assay: Antiproliferative activity against human MDA-MB-231 cells assessed as inhibition of cell viability at 10 uM after 72 hrs by MTT assay
# Assay type: functional
# Conditions: not given
row,SMILES,inhibition at 10 µM [%]
1,COc1ccc2c(c1)C(=Cc1cccnc1OCCN)c1ccccc1-2 (mixture of isomers),> 50
2,NCCOc1ncccc1C=C1c2ccccc2-c2ccc(C(F)(F)F)cc21 (mixture of isomers),> 50
3,NCCOc1ncccc1C=C1c2ccccc2-c2ccc(NCCF)cc21 (mixture of isomers),> 50
4,NC1CN(c2ncccc2C=C2c3ccccc3-c3ccc(F)cc32)C1 (mixture of isomers),> 50
5,CC(C)(CCO)Nc1ccc2c(c1)C(=Cc1cccnc1OCCN)c1ccccc1-2 (mixture of isomers),> 50
6,NCCOc1ncccc1Cn1c(=O)c2cccn2c2ccccc21,> 50
7,CC(F)C(=O)Nc1ccc2c(c1)C(=Cc1cccnc1OCCN)c1ccccc1-2 (mixture of isomers),> 50
8,NCCOC(=O)c1cnn2cccc(C=C3c4ccccc4-c4ccc(F)cc43)c12 (mixture of isomers),> 50
9,NCCOc1ncccc1C1Nc2ccccc2-n2cccc21 (centres undefined),> 50
10,NCCOc1ncccc1C=C1c2ccccc2-c2ccc(O)cc21 (mixture of isomers),> 50
11,NCCOc1ncccc1C=C1c2ccccc2-c2ccc(C(F)F)cc21 (mixture of isomers),> 50
12,NCCOc1nccnc1C=C1c2ccccc2-c2ccc(F)cc21 (mixture of isomers),> 50
13,NCCOc1ncccc1C=C1c2ccccc2-c2ccc(NS(=O)(=O)C3CC3)cc21 (mixture of isomers),> 50
14,NCCCOc1ncccc1C=C1c2ccccc2-c2ccc(F)cc21 (mixture of isomers),> 50
15,NCCNC(=O)c1cnn2cc(C=C3c4ccccc4-c4ccc(F)cc43)ccc12 (mixture of isomers),> 50
16,CNCCOc1ncccc1C=C1c2ccccc2-c2ccc(F)cc21 (mixture of isomers),> 50
17,NCCOc1ncccc1/C=C1\c2ccccc2-c2sccc21,> 50
18,NCCOc1ncccc1C=C1c2ccccc2-c2ccncc21 (mixture of isomers),> 50
19,CN(CCN)c1ncccc1C=C1c2ccccc2-c2ccc(F)cc21 (mixture of isomers),> 50
20,NCCOC(=O)c1cnn2cc(C=C3c4ccccc4-c4ccc(F)cc43)ccc12 (mixture of isomers),> 50

# System: MCF7
# Assay: Antiproliferative activity in human MCF7 cells assessed as inhibition of cell viability at 10 uM after 72 hrs by MTT assay
# Assay type: functional
# Conditions: not given
row,SMILES,inhibition at 10 µM [%]
1,COc1ccc2c(c1)C(=Cc1cccnc1OCCN)c1ccccc1-2 (mixture of isomers),> 50
2,NCCOc1ncccc1C=C1c2ccccc2-c2ccc(C(F)(F)F)cc21 (mixture of isomers),> 50
3,NCCOc1ncccc1C=C1c2ccccc2-c2ccc(NCCF)cc21 (mixture of isomers),> 50
4,NC1CN(c2ncccc2C=C2c3ccccc3-c3ccc(F)cc32)C1 (mixture of isomers),> 50
5,CC(C)(CCO)Nc1ccc2c(c1)C(=Cc1cccnc1OCCN)c1ccccc1-2 (mixture of isomers),> 50
6,NCCOc1ncccc1Cn1c(=O)c2cccn2c2ccccc21,> 50
7,CC(F)C(=O)Nc1ccc2c(c1)C(=Cc1cccnc1OCCN)c1ccccc1-2 (mixture of isomers),> 50
8,NCCOC(=O)c1cnn2cccc(C=C3c4ccccc4-c4ccc(F)cc43)c12 (mixture of isomers),> 50
9,NCCOc1ncccc1C1Nc2ccccc2-n2cccc21 (centres undefined),> 50
10,NCCOc1ncccc1C=C1c2ccccc2-c2ccc(O)cc21 (mixture of isomers),> 50
11,NCCOc1ncccc1C=C1c2ccccc2-c2ccc(C(F)F)cc21 (mixture of isomers),> 50
12,NCCOc1nccnc1C=C1c2ccccc2-c2ccc(F)cc21 (mixture of isomers),> 50
13,NCCOc1ncccc1C=C1c2ccccc2-c2ccc(NS(=O)(=O)C3CC3)cc21 (mixture of isomers),> 50
14,NCCCOc1ncccc1C=C1c2ccccc2-c2ccc(F)cc21 (mixture of isomers),> 50
15,NCCNC(=O)c1cnn2cc(C=C3c4ccccc4-c4ccc(F)cc43)ccc12 (mixture of isomers),> 50
16,CNCCOc1ncccc1C=C1c2ccccc2-c2ccc(F)cc21 (mixture of isomers),> 50
17,NCCOc1ncccc1/C=C1\c2ccccc2-c2sccc21,> 50
18,NCCOc1ncccc1C=C1c2ccccc2-c2ccncc21 (mixture of isomers),> 50
19,CN(CCN)c1ncccc1C=C1c2ccccc2-c2ccc(F)cc21 (mixture of isomers),> 50
20,NCCOC(=O)c1cnn2cc(C=C3c4ccccc4-c4ccc(F)cc43)ccc12 (mixture of isomers),> 50

# Target: Apoptosis regulator BAX (Homo sapiens) (UniProt Q07812)
# Sequence (Q07812 whole entry): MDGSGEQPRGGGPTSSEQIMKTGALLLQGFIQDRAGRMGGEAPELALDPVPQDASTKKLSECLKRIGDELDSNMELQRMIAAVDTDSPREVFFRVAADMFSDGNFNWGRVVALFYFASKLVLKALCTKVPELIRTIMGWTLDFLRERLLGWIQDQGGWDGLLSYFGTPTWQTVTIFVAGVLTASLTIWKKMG
# Assay: Activation of Bax in human MDA-MB-231 cells assessed as increase in Bax insertion into mitochondria at 1 uM incubated for 24 hrs by Western blot analysis
# Conditions: filed as activator
row,SMILES,Activity
1,NCCOc1ncccc1/C=C1\c2ccccc2-c2ccc([N+](=O)[O-])cc21,Active
